Results on 4 molecules are retold here after patent publication US9926354B2, “Amyloid precursor protein (APP) based Ã#-secretase inhibitor peptides, and methods of use” (UNIVERSITY OF SOUTH FLORIDA, priority 2014, dated 2018).

Where “and” joins values, the source holds several entries; their conditions need not be identical. Identical values can stand only once. No end group written: not given here.

Data set [1] concerns the target T1, BACE1 (Homo sapiens, UniProt P56817). Details: purchased Pan Vera Co., Madison, Wis., USA. The settings on record: phase II clinical trial suspended June 2013; cited from earlier work.
A further data set concerns γ-secretase. The following applies: Phase 3; cited from earlier work.
For data set [2], the target named is T1, BACE1. Briefly: BACE1 activity assay (FRET, cell-free). The format is biochemical. Details: purchased Pan Vera Co., Madison, Wis., USA. The settings on record: for % of inhibition (mean ± SD) of BACE1: peptide final concentration 20 μM, 90 minutes, room temperature, 20 µM. The procedure:
BACE1 Activity Assay—The BACE1 inhibiting activity of APP-based BACE1 site binding peptides were determined using a fluorescence resonance energy transfer (FRET) assay (Pan Vera Co., Madison, Wis., USA), which employs a recombinant baculovirus-expressed BACE1 and a specific substrate (Rh-[…]-quencher) that is based on the APPswe mutation. This specific peptide substrate becomes highly fluorescent upon enzymatic cleavage. A mixture of 10 μL of BACE1 (1.0 U/mL in 50 mM Tris, pH7.5, 10% glycerol), 10 μL of FRET-substrate, and 10 μL of the various APP-based BACE1 site binding peptides (final concentration 20 μM) were incubated for 90 minutes in the dark at room temperature. Then, 10 μL of BACE1 stop buffer (2.5 M sodium acetate) was added to the mixture. Fluorescence was read using a fluorometer, with excitation at 545 nm and emission at 585 nm.
As a required enzyme for the generation of neurotoxic Aβ from APP, BACE1 is well established as an important mediator of AD β-amyloid pathology. As such, it has become an important target for new disease modifying therapeutics. However, since BACE1 also has important physiological roles, abolishment of the enzyme or its activity may lead to deleterious side effects as evidenced by numerous failed clinical trials discussed previously. […] Since previous studies have established a close relationship between α-helix structure and peptide-protein (or protein-protein) interactions (Azzarito, 2013; Rao et al., 2013), several APP based peptides were synthesized that might serve as a preferable substrate for BACE1. Importantly, these peptides were free of the Aβ-containing segment and, thus, cannot be amyloidogenic. In theory, these could be used to “hijack” the BACE1 processing of endogenous APP and lead to a decrease in cerebral Aβ. These BACE1 substrates and controls were incubated with recombinant BACE1 and percent of inhibition of the enzyme was calculated. […] These findings indicate that the α-helical TAT fusion domain may help to promote selective APPsweBBP proteolysis by BACE1, yielding substrate competition against human wild-type APP.

Data set [3] relates to CHO cells over-expressing human wild-type APP (CHO/APPwt). Briefly: Aβ and sAPPα production in cultured media of CHO/APPwt cells by ELISA (24 hours). The following applies: 20 μg/mL. The format is cell-based, Chinese hamster. The procedure:
(§1) Cell Culture—Chinese hamster ovary (CHO) cells engineered to express wild-type human APP (CHO/APPwt cells) or Swedish mutant human APP (CHO/APPswe cells) were kindly provided by Dr. Stefanie Hahn and Dr. Sascha Weggen (University of Heinrich Heine, Dusseldorf, Germany). As described previously (Obregon et al., 2012), these cells were cultured in Dulbecco's modified Eagle's medium (DMEM) with 10% fetal bovine serum (FBS), 1 mM sodium pyruvate, and 100 units/mL of penicillin and streptomycin.
To confirm the binding of APPsweBBP with BACE1, CHO/APPwt cells were plated in 8-well chambers (5×10^5/well), incubated with TAT-APPsweBBP-biotin or APPsweBBP-biotin at 20 μM for 30 minutes, fixed with 4% paraformaldehyde for 20 minutes, washed and permeabilized with 0.5% Triton X-100. Following application of blocking buffer, these cells were stained with mouse anti-BACE1 and rabbit anti-biotin antibodies overnight at 4° C. for immunocytochemistry analysis. […] The cultured media were collected for Aβ analysis by enzyme-linked immunosorbent assay (ELISA) and sAPPα analysis by ELISA and Western blot (WB). Cell lysates were also prepared for analysis of APP amyloidogenic processing by WB.
(§2) ELISA—Mouse brains were homogenized in ice-cold lysis buffer for 30 seconds using a Minilys tissue homogenizer (Bertin Technologies, Montigny-le-Bretonneux, France) set at high speed, allowed to stand for 15 minutes at 4° C., and centrifuged at 15,000 rpm for 30 minutes. Soluble Aβ1-40/42 species and sAPPα were directly detected in cultured cell media or brain homogenates using the Aβ1-40/42 (Invitrogen) and sAPPα ELISA kits (IBL-America, Minneapolis, Minn., USA).
(§3) To further examine the ability of the Swedish mutant APP BACE1 binding peptide/Tat fusion peptides to decrease Aβ production, CHO cells overexpressing either human wild-type APP (CHO/APPwt cells) or Swedish mutant APP (hereinafter referred to as “CHO/APPswe cells”) are treated with a variety of APP-based BACE1 inhibitor peptides, as shown in Table 1 and Table 2. Aβ production is determined using ELISA.
In general terms: An ELISA detects its analyte on a solid surface through an enzyme-linked reagent.

Another data set concerns CHO/APPwt cells. The data set can be described thus: Aβ production in CHO/APPwt cells by ELISA (Example 1, 4 hours). The format is cell-based, Chinese hamster. The following applies: 20 μg/mL. The procedure:
To examine the effects of various Swedish Tat fusion peptides on Aβ production, human wild-type amyloid precursor protein (APP) is overexpressed in Chinese hamster ovary cells (hereinafter referred to as CHO/APPwt cells), and the cells are treated with either PBS control (Phosphate buffered saline); Swedish peptide-1 (SwePep-1), […] (also referred herein as “APPsweBBP1”) (SEQ ID NO: 5); Swedish peptide-2 (SwePep-2) (also referred herein as “APPsweBBP”), […] (SEQ ID NO: 1); Swedish Tat fusion peptide-1 (SweTatPep-1), […] (also referred herein as “APPsweBBP/TTD1”) (SEQ ID NO: 6); or Swedish Tat fusion peptide-2 (SweTatPep-2) (also referred herein as “APPsweBBP/TTD2” and “TAT-APPsweBBP”), […] (SEQ ID NO: 3). APPsweBBP is a truncated fragment of APPswe spanning 12 amino acid residues (Glu665-Arg676). TAT, an 11-amino acid-residue protein-transduction domain derived from the HIV-1 transactivator of transcription protein, was conjugated at the C-terminus of APPsweBBP and biotin was conjugated at the N-terminus.
Following treatment, Aβ production is determined utilizing ELISA and the results illustrated in FIG. 1A. SweTatPep-2, SwePep-2, SwePep-1 and SweTatPep-1 each reduce Aβ40,42 by 63-65%, 30-33%, 31-34% and 37-38%, respectively.

Data set [4] relates to CHO cells over-expressing human Swedish mutant APP (CHO/APPswe). Briefly: Aβ and sAPPα production in cultured media of CHO/APPswe cells by ELISA. The format is cell-based, Chinese hamster. The following applies: 20 μg/mL, 24 hours. The procedure:
as §1
To confirm the binding of APPsweBBP with BACE1, CHO/APPwt cells were plated in 8-well chambers (5×10^5/well), incubated with TAT-APPsweBBP-biotin or APPsweBBP-biotin at 20 μM for 30 minutes, fixed with 4% paraformaldehyde for 20 minutes, washed and permeabilized with 0.5% Triton X-100. Following application of blocking buffer, these cells were stained with mouse anti-BACE1 and rabbit anti-biotin antibodies overnight at 4° C. for immunocytochemistry analysis. In order to determine the inhibitory effects of TAT-APPsweBBP on BACE1-mediated APP β-cleavage and subsequent Aβ production, both CHO/APPwt and CHO/APPswe cells were plated in 24 well-plates (3×10^5/well) and treated with TAT-APPsweBBP at 0-20 μM for 24 hours. The cultured media were collected for Aβ analysis by enzyme-linked immunosorbent assay (ELISA) and sAPPα analysis by ELISA and Western blot (WB). Cell lysates were also prepared for analysis of APP amyloidogenic processing by WB.
as §2, §3

Another data set deals with 5XFAD mice. The data set can be described thus: WB of BACE1, ADAM10, ADAM17, Akt, phospho-Akt and MBP in brain homogenates of 5XFAD mice. It is filed as in vivo, mouse. The settings on record: vs TAT and PBS. The procedure: 5XFAD Mice—Transgenic AD mice [5XFAD; B6SJL-Tg(APPSwF1Lon,PSEN1*M146L*L286V) 6799Vas/Mmjax] at 2.5 months of age were obtained from the Jackson Laboratory (Bar Harbor, Me., USA) and housed and maintained in the Animal Facility of College of Medicine at University of South Florida. The mice at 3.5 months of age were treated with TAT-APPsweBBP, TAT peptide (100 nM/kg in 100 μl PBS) or PBS (100 μl) intraperitioneally (i.p.) daily for eight consecutive weeks. The mice were subjected to behavioral testing after 8 week-treatment and euthanized for immunohistochemical, ELISA and WB analysis after completing behavioral tests. All experiments involving mice were in compliance with the U.S. Department of Health and Human Services Guide for the Care and Use of Laboratory Animals and in accordance with the guidelines of the USF Institutional Animal Care and Use Committee.
Western Blotting (WB) and Analysis—WB analysis was performed as previously described (Modi et al., 2013; Tung et al., 2002). Briefly, the proteins from the various cell-free, cell and brain lysates or homogenates were electrophoretically separated using 10% bicine/tris gel (8 M urea) for proteins less than 5 kD or 10% tricine/tris gels for larger proteins. […]
In addition to cognitive testing, neuronal APP proteolysis was also evaluated by ELISA and WB. […]

Data set [5] is classed as in vivo, mouse. The following applies: biotin-labeled, 100 nM/kg i.p. daily for 5 days, 4 hours after last injection, 5XFAD mice. The procedure: In order to determine the BBB permeability of TAT-APPsweBBP, biotin-labeled TAT-APPsweBBP or APPsweBBP (100 nM/kg in 100 μl physiological saline) was intraperitoneally (i.p.) administered daily to 5XFAD mice at 2 months of age for 5 days (n=5, female). The mice were euthanized 4 hours after the last injection and then brain tissues were removed, sectioned and stained with anti-BACE1 and anti-biotin antibodies. Alexa Fluor® 594 donkey anti-rabbit IgG was used to detect the biotin signal and Alexa Fluor® 488 goat anti-mouse IgG was used to detect the BACE1 signal. All images were taken with an Olympus Fluoview FV1000 laser scanning confocal microscope. […] No noticeable differences in biotin distribution were observed between 5XFAD and WT control mice following either biotin-labeled TAT-APPsweBBP or APPsweBBP injection (data not shown).
The hypothesis that TAT-APPsweBBP would more effectively penetrate the BBB compared with APPsweBBP alone was initially tested. 5XFAD mice at 2 months of age (n=5, female) were treated with biotin-labeled TAT-APPsweBBP or APPsweBBP (100 nM/kg, i.p.) daily for 5 days and then euthanized 4 hours after the last injection. Brain tissues were removed, sectioned, and stained with anti-BACE1 and anti-biotin antibodies. […] This highlights the importance of the membrane fusion fragment of the HIV-1 Tat protein (TAT) for cerebral delivery of APPsweBBP.

T1 sequence (P56817 46-501): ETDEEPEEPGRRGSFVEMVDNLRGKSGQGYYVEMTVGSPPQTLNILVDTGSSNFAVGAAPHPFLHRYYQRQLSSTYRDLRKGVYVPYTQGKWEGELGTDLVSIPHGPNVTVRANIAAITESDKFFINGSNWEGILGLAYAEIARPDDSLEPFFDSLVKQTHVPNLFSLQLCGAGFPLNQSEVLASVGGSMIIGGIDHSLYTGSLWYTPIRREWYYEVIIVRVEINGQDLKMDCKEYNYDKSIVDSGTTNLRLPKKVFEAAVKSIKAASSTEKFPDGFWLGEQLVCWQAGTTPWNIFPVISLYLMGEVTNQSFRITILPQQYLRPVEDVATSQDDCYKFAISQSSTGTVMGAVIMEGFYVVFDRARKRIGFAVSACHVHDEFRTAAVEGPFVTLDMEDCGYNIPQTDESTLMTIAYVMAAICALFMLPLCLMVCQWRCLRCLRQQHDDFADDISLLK

On to `NC1=N[C@@]2(c3cc(NC(=O)c4ccc(F)cn4)ccc3F)COC[C@H]2CS1` [LY2886721], for which the “reason for trial suspension” value at BACE1 [1] is “possible liver toxicity”.

On to `CC(C)[C@H](O)C(=O)N[C@@H](C)C(=O)N[C@@H]1C(=O)N(C)CCc2ccccc21` [semagacestat], for which the “activities of daily living and cognition in treated patients” value with γ-secretase is listed as “worsened”.

In the case of “EISEVNLDAEFR (listed as Homo sapiens) [APPsweBBP2]”, the “% of inhibition (mean ± SD) of BACE1” value with BACE1 [2] was ~40% and 38.43%. For the same molecule, in data set [3], the “Secreted Aβ40 (ng/mg; mean ± SD)” value is reported as 7.01 ± 1.02 ng/mg, the “Secreted Aβ42 (ng/mg; mean ± SD)” value came to 0.73 ± 0.034 ng/mg and the “Secreted sAPPα (ng/mg; mean ± SD)” value was 5201.64 ± 119.63 ng/mg. Besides, the “reduction of Aβ40,42” value in the data set on CHO/APPwt cells was 30-33%. Also, in data set [4], the “Secreted Aβ40 (ng/mg; mean ± SD)” value is listed as 41.41 ± 8.43 ng/mg, the “Secreted Aβ42 (ng/mg; mean ± SD)” value is 6.54 ± 0.85 ng/mg and the “Secreted sAPPα (ng/mg; mean ± SD)” value worked out at 253.56 ± 20.11 ng/mg.

Consider “YGRKKRRQRRREISEVNLDAEFR [APPsweBBP/TTD2]”, for which the “% of inhibition (mean ± SD) of BACE1” value on BACE1 [2] (listed as TAT-APPswe^bBBP) was found to be 93.23 ± 2.73%. Further, the inhibition at 20 µM on BACE1 [2] (read-out: % of inhibition (mean ± SD) of BACE1, peptide final concentration 20 μM, 90 minutes, room temperature) was > 90%. Moreover, the “total Akt, phosphorylated Akt and MBP expression levels in brain homogenates” value with 5XFAD mice is “did not differ”. Besides, the BBB penetration entry in data set [5] was “highly penetrated the BBB”.
